Assay results taken from patent publication US20220332733A1, “MATERIAL FOR WAVELENGTH CONVERSION, WAVELENGTH CONVERSION MEMBER, LIGHT EMITTING DEVICE, AND COMPOUND USED FOR SAME” (FUJIFILM Corporation, priority 2021, published 2022).

Legend:
Format in all cases: physicochemical
[1] = Absorption characteristics of compound (molar absorption coefficient, half-width) in chloroform; settings: for Half-Width: at maximal absorption wavelength
Experimental: Using a spectrophotometer UV-3600 (trade name) manufactured by Shimadzu Corporation, a molar absorption coefficient ϵ (1/mol·cm) and a half-width at a maximal absorption wavelength were measured and evaluated based on the following evaluation ranks. The half-width means a width (distance) between two wavelengths showing half the intensity of the maximal value at the maximum absorption wavelength. In the table, the evaluation of the molar absorption coefficient ϵ is described in the column of ϵ. As a measurement solvent, chloroform was used.
In this test, a molar absorption coefficient at evaluation rank “B” or higher (S to B) is regarded as acceptable, and due to the fact that the half-width is preferably narrow from the viewpoint of an improvement of color reproducibility, a half-width at evaluation rank “A” or higher (S or A) is regarded as acceptable.

[2] = Relative fluorescence intensity of fluorescent latex dispersion; settings: for fluorescence intensity of fluorescent latex as the compound amount is increased (in words): compared with comparative compound (1), summary of Table 1; for Relative Fluorescence Intensity: relative to 6 μmol/g of the same compound, at emission maximum wavelength, dispersion diluted 200 times
Experimental: As latex particles, particles having an average particle diameter of 150 nm, which were prepared by polymerizing a mixture of styrene and an acrylic acid in a mass ratio of 9:1 in a state of being dispersed in water, were used. The average particle diameter was measured using a dynamic light scattering method using Zetasizer Nano ZS (trade name, manufactured by Malvern Panalytical Ltd.) based on the above-described measurement conditions. 5 mL of THF was added dropwise to 25 mL of the latex dispersion with a solid content of 2% (solid content mass: 500 mg) prepared as above, and the mixture was stirred for 10 minutes. 2.5 mL of a THF solution of a test compound (any one of the compound (1-1), the compound (1-2), the compound (2-1), or the comparative compound (1)) was added dropwise thereto for 15 minutes. In Table 1, μmol/g in the column of compound amount indicates the number of moles of the compound used with respect to 1 g of the solid content of the latex. Completion of the dropwise addition of the test compound was followed by stirring for 30 minutes and concentration under reduced pressure to remove THF. After that, the particles were precipitated by centrifugation, followed by addition of ultrapure water and redispersion to manufacture fluorescent latex dispersions Nos. 101 to 104, 201, 202, 301 to 303, and c11 to c14 with a concentration of solid contents of 2 mass %.
The relative fluorescence intensity of the fluorescent latex dispersion with a concentration of solid contents of 2 mass % manufactured as above at an emission maximum wavelength was evaluated. The evaluation was performed using a latex dispersion diluted 200 times with ultrapure water with the use of a fluorescence spectrophotometer RF-5300PC (trade name) manufactured by Shimadzu Corporation for measurement of the emission maximum wavelength and the fluorescence intensity at the emission maximum wavelength.
In the respective test compounds, based on the fluorescence intensity at the emission maximum wavelength with a compound amount of 6 μmol/g, fluorescence intensities at the emission maximum wavelength with other compound amounts were evaluated as the relative fluorescence intensity.

[3] = Solubility of compound in solvents or raw material monomers, visual; settings: summary of Table 3
Experimental: The solubility in the following solvents or media A to G as raw material monomers of a resin was evaluated. The evaluation method is as follows: 0.1 ml of a solvent was added to […] of each compound to dissolve the compound, and the solubility was visually determined based on the following evaluation ranks. In this test, evaluation rank “B” or higher is an acceptable level.

[4] = compound amount 48 μmol/g latex solids
[5] = compound amount 100 μmol/g latex solids
[6] = compound amount 24 μmol/g latex solids

ε (molar absorption coefficient at maximal absorption wavelength) [1]	Half-Width [1]	fluorescence intensity of fluorescent latex as the compound amount is increased (in words) [2]	Relative Fluorescence Intensity [2, 4]	Relative Fluorescence Intensity [2, 5]	solubility in the solvent or raw material monomer (in words) [3]	Relative Fluorescence Intensity [2, 6]	SMILES
S (equal to or greater than 130,000)	S (equal to or less than 30 nm)	higher fluorescence intensity	7 times as large as No. 301	12 times as large as No. 301	excellent solubility	–	CC1=C(C(=O)OC2C(C(C)(C)C)CC(C)CC2C(C)(C)C)C(N)=[N+]2C1=C(C)c1c(C)c(C(=O)OC3C(C(C)(C)C)CC(C)CC3C(C)(C)C)c(N)n1[B-]2(F)C(F)(F)F (centres unmarked) [Compound (2-1)]
S (equal to or greater than 130,000)	S (equal to or less than 30 nm)	higher fluorescence intensity	7 times as large as No. 101	12 times as large as No. 101	excellent solubility	4 times as large as No. 101	CC1=C(C(=O)OC2C(C(C)(C)C)CC(C)CC2C(C)(C)C)C(N)=[N+]2C1=C(C)c1c(C)c(C(=O)OC3C(C(C)(C)C)CC(C)CC3C(C)(C)C)c(N)n1[B-]2(F)F (centres unmarked) [Compound (1-1)]
D (less than 100,000)	S (equal to or less than 30 nm)	–	5 times as large as No. c11	6 times as large as No. c11	poor solubility	3 times as large as No. c11	CCOC(=O)C1=C(C)C2=C(c3cc(-c4ccc(C(C)(C)C)cc4)cc(-c4ccc(C(C)(C)C)cc4)c3)c3c(C)c(C(=O)OCC)c(C)n3[B-](F)(F)[N+]2=C1C [Comparative Compound (1), reference compound]

SMILES	ε (molar absorption coefficient at maximal absorption wavelength) [1]	Half-Width [1]	fluorescence intensity of fluorescent latex as the compound amount is increased (in words) [2]	Relative Fluorescence Intensity [2, 4]	Relative Fluorescence Intensity [2, 5]	solubility in the solvent or raw material monomer (in words) [3]	Relative Fluorescence Intensity [2, 6]
CC1CC(C(C)(C)C)C(OC(=O)C2=C(c3ccccc3)C3=Cc4c(-c5ccccc5)c(C(=O)OC5C(C(C)(C)C)CC(C)CC5C(C)(C)C)c(N)n4[B-](F)(F)[N+]3=C2N)C(C(C)(C)C)C1 (centres unmarked) [Compound (1-2)]	S (equal to or greater than 130,000)	A (equal to or greater than 31 nm and equal to or less than 35 nm)	higher fluorescence intensity	–	10 times as large as No. 201	–	–
